From patent US20210317092A1 (BAYER PHARMA AKTIENGESELLSCHAFT, priority 2016, published 2021)
Like-named read-outs stand apart in the source and are kept apart here.

Biological target: T1, human Bradykinin B1 receptor (Homo sapiens, UniProt P46663)
T1 construct: host or cells: CHO-K1
T1 sequence (P46663 1-353): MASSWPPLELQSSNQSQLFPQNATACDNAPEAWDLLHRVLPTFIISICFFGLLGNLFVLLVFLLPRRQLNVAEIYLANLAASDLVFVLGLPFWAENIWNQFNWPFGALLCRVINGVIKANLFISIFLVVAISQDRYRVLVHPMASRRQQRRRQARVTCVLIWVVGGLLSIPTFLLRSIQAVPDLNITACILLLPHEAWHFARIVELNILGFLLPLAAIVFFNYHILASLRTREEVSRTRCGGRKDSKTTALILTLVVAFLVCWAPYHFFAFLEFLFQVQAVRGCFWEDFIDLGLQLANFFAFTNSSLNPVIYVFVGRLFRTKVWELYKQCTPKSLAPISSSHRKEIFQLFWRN
Experiment: Calcium flux Assay (FLIPR) with recombinant CHO-K1 cells expressing human Bradykinin B1 receptor, in presence (hB1 IC50) or absence (hB1 free IC50) of 0.1% BSA
Format: cell-based
Protocol: The potency to inhibit the Bradykinin B1 receptor was determined for the compounds of this invention in a cell-based fluorescent calcium-mobilisation assay. The assay measures the ability of test compounds to inhibit Bradykinin B1 receptor agonist-induced increase of intracellular free Ca^2+ in the cell line expressing Bradykinin B1 receptor. […] The change of the intracellular Ca^2+ concentration is monitored with a fluorescent plate reader FLIPR TETRA® (Molecular Devices).
Calcium flux Assays (FLIPR) with cells expressing human Bradykinin B1 receptor (hB1)
CHO-K1 cell line expressing human Bradykinin B1 receptor was purchased from Euroscreen (Gosselies, Belgium, with reference name hB1-D1). The cells were grown in Nutrient Mixture Ham's F12 (Sigma) containing 10% Foetal bovine serum (Sigma) and 400 μg/mL G418 (Sigma), 5 μg/mL puromycim (Sigma). […]
Cells were seeded in a volume of 50 μL in medium without antibiotics and incubated overnight in a humidified atmosphere with 5% CO2 at 37° C. […] The calcium indicator loaded cells were incubated at 37° C. for 2 hrs. Extracellular dye was then removed and each well was filled with 45 μL of assay buffer. Cell plates were kept in dark until used. Compound examples were assayed at 8 concentrations in triplicate. Serial 10-fold dilutions in 100% DMSO were made at a 100-times higher concentration than the final concentration, and then diluted 1:10 in assay buffer. 5 μL of each diluted compound was added to the well of cell plates (yielding final concentration with 1% DMSO), and incubated for 30 min at 28° C. before the addition of Bradykinin B1 receptor agonist on the FLIPR instrument.
A peptide antagonist Lys-(Des-Arg-Leu)-Bradykinin (Bachem, Brackley) at 20 µM was used to determine the full inhibition as control.
Peak fluorescence was used to determine the response to agonist obtained at each concentration of compound examples by the following equation:
% Response=100*(RFU(compound)−RFU(control))/(RFU(DMSO)−RFU(control)) • RFU means relative fluorescence units. • Control means full inhibition by the peptide antagonist Lys-(Des-Arg-Leu)-Bradykinin at 20 µM.
The response values were plotted against the logarithm of the compound concentrations. The compound examples were tested in triplicates per plate and mean values were plotted in Excel XLfit to determine IC50 values, percentage of maximal inhibition and the Hill slopes.

[1] = in absence of 0.1% BSA, read-out: hB1 free IC50
[2] = in presence of 0.1% BSA, read-out: hB1 IC50

Molecule	IC50 [1] [nM]	IC50 [2] [nM]
1-(3,4- difluorophenyl)- N-{3-(1H- tetrazol-5-yl)-4- [3-(2,2,2- trifluoroethyl)- 1H-pyrazol-1- yl]phenyl}cyclopro- panecarboxa- mide [Example 387]	434	
1-(3- chlorophenyl)- N-[3-(1H- tetrazol-5-yl)- 6′- (trifluoromethyl)- 2,3′-bipyridin- 5- yl]cyclopropane carboxamide [Example 217]	516	
1-(3- chlorophenyl)- N-[4′- (methoxymethyl)- 2-(1H- tetrazol-5- yl(biphenyl-4- yl]cyclopropane carboxamide [Example 123]		645
1-[2-fluoro-4- (trifluoromethoxy)- phenyl]-N-{3- (1H-tetrazol-5- yl)-4-[3-(2,2,2- trifluoroethyl)- 1H-pyrazol-1- yl]phenyl}cyclopro- panecarboxa- mide [Example 390]	14	
1-[2-fluoro-4- (trifluoromethyl) phenyl]-N-[4- (4-isopropyl-1H- pyrazol-1-yl)-3- (1H-tetrazol-5- yl)phenyl]cyclopro- panecarboxa- mide [Example 399]	5.16	
COc1ccc(-c2ccc(NC(=O)C3(C4CCC(C)CC4)CC3)cc2-c2nnn[nH]2)cc1 (mixture of isomers) [Example 114, N-[4′-methoxy-2-(1H-tetrazol-5-yl)biphenyl-4-yl]-1-(4-methylcyclo-hexyl) cyclopropane carboxamide]		1350
COc1ccc(-c2ccc(NC(=O)C3(C4CCC(C)CC4)CC3)cc2-c2nnn[nH]2)cc1OC (single isomer, unassigned) [Example 52, N-[3′,4′-dimethoxy-2-(1H-tetrazol-5-yl)biphenyl-4-yl]-1-(4-methylcyclohexyl) cyclopropane carboxamide]		122
COc1ccc(-c2ccc(NC(=O)C3(C4CCC(C)CC4)CC3)cc2-c2nnn[nH]2)cc1 (single isomer, unassigned) [Example 113, N-[4′-methoxy-2-(1H-tetrazol-5-yl)biphenyl-4-yl]-1-(4-methylcyclo-hexyl) cyclopropane carboxamide]		1200
COc1ccc(-c2ccc(NC(=O)C3(c4ccc(F)cc4F)CC3)cc2-c2nnn[nH]2)cc1OC [Example 2, 1-(2,4-difluorophenyl)-N-[3′,4′-dimethoxy-2-(1H-tetrazol-5-yl)biphenyl-4-yl]cyclopropane carboxamide]		58.9
COc1ccc(-c2ccc(NC(=O)C3(c4ccccc4F)CC3)cc2-c2nnn[nH]2)cc1OC [Example 3, N-[3′,4′-dimethoxy-2-(1H-tetrazol-5-yl)biphenyl-4-yl]-1-(2-fluorophenyl) cyclopropane-carboxamide]		54.8
COc1ccc(-c2ccc(NC(=O)C3(c4ccccc4OC(F)(F)F)CC3)cc2-c2nnn[nH]2)cc1OC [Example 4, N-[3′,4′-dimethoxy-2-(1H-tetrazol-5-yl)biphenyl-4-yl]-1-[2-(trifluoro-methoxy)phenyl] cyclopropane-carboxamide]		158
COc1ccc(-c2ccc(NC(=O)C3(c4ccc(C)cc4)CC3(C)C)cc2-c2nnn[nH]2)cc1OC (stereo not shown) [Example 5, N-[3′,4′-dimethoxy-2-(1H-tetrazol-5-yl)biphenyl-4-yl]-2,2-dimethyl-1-(4-methylpheny) cyclopropane carboxamide]		1510
COc1ccc(-c2ccc(NC(=O)C3(c4ccc(F)cc4)CC3(C)C)cc2-c2nnn[nH]2)cc1OC (stereo not shown) [Example 6]		1370
COc1ccc(-c2ccc(NC(=O)C3(c4ccccc4)CC3(C)C)cc2-c2nnn[nH]2)cc1OC (stereo not shown) [Example 7, N-[3′,4′-dimethoxy-2-(1H-tetrazol-5-yl)biphenyl-4-yl]-2,2-dimethyl-1-phenylcyclo-propane-carboxamide]		1350
COc1ccc(-c2ccc(NC(=O)C3(c4ccccc4F)CC3(C)C)cc2-c2nnn[nH]2)cc1OC (stereo not shown) [Example 8, N-[3′,4′-dimethoxy-2-(1H-tetrazol-5-yl)biphenyl-4-yl]-1-(2-fluorophenyl)-2,2-dimethylcyclo-propane-carboxamide]	337	347
COc1ccc(-c2ccc(NC(=O)C3(c4ccccn4)CC3)cc2-c2nnn[nH]2)cc1OC [Example 9]		660
COc1ccc(-c2ccc(NC(=O)C3(c4cccc(F)c4)CC3)cc2-c2nnn[nH]2)cc1OC [Example 10, N-[3′,4′-dimethoxy-2-(1H-tetrazol-5-yl)biphenyl-4-yl]-1-(3-fluorophenyl) cyclopropane-carboxamide]		68.8
COc1ccc(-c2ccc(NC(=O)C3(c4ccc(F)cc4)CC3)cc2-c2nnn[nH]2)cc1OC [Example 11, N-[3′,4′-dimethoxy-2-(1H-tetrazol-5-yl)biphenyl-4-yl]-1-(4-fluorophenyl) cyclopropane-carboxamide]		43
COc1ccc(-c2ccc(NC(=O)C3(c4cc(F)cc(F)c4)CC3)cc2-c2nnn[nH]2)cc1OC [Example 13, 1-(3,5-difluorophenyl)-N-[3′,4′-dimethoxy-2-(1H-tetrazol-5-yl)biphenyl-4-yl]cyclopropane carboxamide]		86.6
COc1ccc(-c2ccc(NC(=O)C3(c4ccc(F)c(Cl)c4)CC3)cc2-c2nnn[nH]2)cc1OC [Example 14, 1-(3-chloro-4-fluorophenyl)-N-[3′,4′-dimethoxy-2-(1H-tetrazol-5-yl)biphenyl-4-yl]cyclopropane carboxamide]		101
COc1ccc(-c2ccc(NC(=O)C3(c4cc(F)cc(Cl)c4)CC3)cc2-c2nnn[nH]2)cc1OC [Example 15, 1-(3-chloro-5-fluorophenyl)-N-[3′,4′-dimethoxy-2-(1H-tetrazol-5-yl)biphenyl-4-yl]cyclopropane carboxamide]		40.9
COc1ccc(-c2ccc(NC(=O)C3(c4ccc(OC(F)(F)F)cc4)CC3)cc2-c2nnn[nH]2)cc1OC [Example 19, N-[3′,4′-dimethoxy-2-(1H-tetrazol-5-yl)biphenyl-4-yl]-1-[4-(trifluoromethoxy)phenyl] cyclopropane-carboxamide]		42.9
COc1ccc(-c2ccc(NC(=O)C3(c4ccc(C(F)(F)F)cc4F)CC3)cc2-c2nnn[nH]2)cc1OC [Example 20, N-[3′,4′-dimethoxy-2-(1H-tetrazol-5-yl)biphenyl-4-yl]-1-[2-fluoro-4-(trifluoromethyl)phenyl] cyclopropane-carboxamide]	29.2	54.4
COc1ccc(-c2ccc(NC(=O)C3(c4cc(F)ccc4F)CC3)cc2-c2nnn[nH]2)cc1OC [Example 21, 1-(2,5-difluorophenyl)-N-[3′,4′-dimethoxy-2-(1H-tetrazol-5-yl)biphenyl-4-yl]cyclopropane carboxamide]		367
COc1ccc(-c2ccc(NC(=O)C3(c4cccc(OC(F)F)c4)CC3)cc2-c2nnn[nH]2)cc1OC [Example 22, 1-[3-(difluoromethoxy)phenyl]-N-[3′,4′-dimethoxy-2-(1H-tetrazol-5-yl)biphenyl-4-yl]cyclopropane carboxamide]		212
COc1ccc(C2(C(=O)Nc3ccc(-c4ccc(OC)c(OC)c4)c(-c4nnn[nH]4)c3)CC2)cc1F [Example 24, N-[3′,4′-dimethoxy-2-(1H-tetrazol-5-yl)biphenyl-4-yl]-1-(3-fluoro-4-methoxyphenyl) cyclopropane-carboxamide]		232
